Our source for the Ki values is ChEMBL document CHEMBL5727383, “[1,2,3]triazolo[4,5-D]pyrimidine derivatives” (2019).

The target of the test is Cannabinoid receptor 2 (Homo sapiens, UniProt P34972). Briefly: Radioligand Binding Assay: The affinity of the compounds of the invention for cannabinoid receptors was determined using recommended amounts of membrane preparations (PerkinElmer) of human embryonic kidney (HEK) cells expressing the human CNR1 or CNR2 receptors in conjunction with 1.5 or 2.6 nM [3H]-CP-55,940 (Perkin Elmer) as radioligand, respectively. Binding was performed in binding buffer (50 mM Tris, 5 mM MgCl2, 2.5 mM EDTA, and 0.5% (wt/vol) fatty acid free BSA, pH 7.4 for CB1 receptor and 50 mM Tris, 5 mM MgCl2, 2.5 mM EGTA, and 0.1% (wt/vol) fatty acid free BSA, pH 7.4 for CB2 receptor) in a total volume of 0.2 mL for 1 h at 30° C. shaking. The reaction was terminated by rapid filtration through microfiltration plates coated with 0.5% polyethylenimine (UniFilter GF/B filter plate; Packard). Bound radioactivity was analyzed for Ki using nonlinear regression analysis (Activity Base, ID Business Solution, Limited), with the Kd values for [3H]CP55,940 determined from saturation experiments.
Chain of Cannabinoid receptor 2 (P34972 whole entry): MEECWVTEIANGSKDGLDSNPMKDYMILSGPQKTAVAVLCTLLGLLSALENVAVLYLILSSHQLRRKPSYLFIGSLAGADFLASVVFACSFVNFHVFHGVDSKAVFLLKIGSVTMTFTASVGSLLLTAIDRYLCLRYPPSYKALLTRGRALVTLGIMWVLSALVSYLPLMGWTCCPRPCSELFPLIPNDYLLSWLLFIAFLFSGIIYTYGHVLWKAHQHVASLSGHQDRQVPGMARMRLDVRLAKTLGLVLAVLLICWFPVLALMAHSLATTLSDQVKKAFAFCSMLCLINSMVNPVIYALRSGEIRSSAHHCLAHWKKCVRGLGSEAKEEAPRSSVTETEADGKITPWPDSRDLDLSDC

In the case of `CC(C)(C)c1nc(N2CCC(F)(F)C2)c2nn(Cc3ccc(C4(C(F)(F)F)N=N4)cc3Cl)nc2n1`, the Ki was determined as 2340 nM.
